# According to PMC3131558, “Plitidepsin Has a Safe Cardiac Profile: A Comprehensive Analysis” (Marine Drugs, 2011):
# Experiments:
# [1] = system: adult patients with advanced solid tumors or hematological malignancies; test: Cardiac adverse events (CAEs) in phase I/II clinical trials of single-agent plitidepsin; assay type: in vivo, human; details: for CAE group: Miscellaneous Cardiac Adverse Events / CAE group: Myocardial Injury / CAE group: Rhythm Abnormalities / CAE subgroup: Irregular Supraventricular Tachycardia / CAE subgroup: Other Myocardial Injury / CAE subgroup: Other Rhythm Abnormalities / CAE subgroup: Possible Ischemic Related / CAE subgroup: Regular Supraventricular Tachycardia / CAE: Acute myocardial infarction / CAE: Arrhythmia / CAE: Atrial fibrillation / CAE: Atrial flutter / CAE: Atrioventricular block / CAE: Cardiac amyloidosis / CAE: Cardiac failure / CAE: Cardiac troponin I increased / CAE: Cardiomegaly / CAE: Cardiomyopathy / CAE: Change in electrocardiogram / CAE: Chest pain / CAE: Ejection fraction decreased / CAE: Electrocardiogram QT prolonged / CAE: Electrocardiogram ST-T change / CAE: Heart rate irregular / CAE: Hypertension / CAE: Hypotension / CAE: Myocardial ischemia / CAE: Palpitations / CAE: Pericardial effusion / CAE: Sinus tachycardia / CAE: Supraventricular arrhythmia / CAE: Supraventricular tachycardia / CAE: Tachycardia / CAE: Ventricular hypokinesia / Total Adverse Events (cardiac): regardless of relationship
# Text: Clinical trials included in this cardiac safety analysis were 4 phase I and 14 phase II studies evaluating plitidepsin as single-agent chemotherapy in a total of 578 adult patients (see details in Table 1). All available information on CAEs was retrieved from Pharma Mar’s internal Pharmacovigilance and Clinical Trials databases. The reviewed sources of information were Case Report Forms (CRFs), serious adverse event (SAE) reports, follow-up reports and supplementary reports attached or requested. Median follow-up was 12.0 months (95% CI, 7.6–13.8) for phase I trials and 12.3 months for phase II trials (95% CI, 11.0–13.7). Cutoff for data analysis was 20 November 2008.
# All adverse events (AEs) with preferred terms of the Medical Dictionary for Regulatory Activities (MedDRA) that could be potentially classified as cardiac were evaluated. Additionally, events included in other systems as well in those patients with any vascular risk associated (prior history or within the trial) were also reviewed. Laboratory data were also reviewed in those cases with grade 3/4 creatine phosphokinase increase and/or troponin ([…] or troponin I) elevations. Patients’ prior history and baseline information were searched for any associated vascular risk (diabetes, hypercholesterolemia, hypertension, smoking, prior myocardial infarction or angina, etc.). All events retrieved using the aforementioned criteria were reviewed to identify and exclude from analysis potential CAEs due to obvious cancer-related symptoms (e.g., sinusal tachycardia in anemic patients, chest pain obviously related to tumor involvement of the chest). […] The information obtained was tabulated and a descriptive analysis is reported here.
# [2] = system: adult patients with advanced solid tumors or hematological malignancies; test: Paired ECGs (QTc, heart rate) before and after plitidepsin infusion; assay type: in vivo, human; details: for QTc Pre-infusion / HR Post-Infusion / QTc Post-infusion / HR Pre-Infusion: mean (SD)
# Experimental: Selected ECG variables (Bazett’s corrected QT interval (QTc) and heart rate (HR)) were analyzed in patients with paired ECG data (i.e., available before and after plitidepsin infusion, n = 136).
# Pharmacokinetic (PK) data available from individual clinical trials (four phase I studies and nine phase II studies; see details in Table 1) and/or simulated data using population PK analyses were correlated with the occurrence of CAEs. In the individual studies, doses ranged from 0.13 to 8.00 mg/m^2, and were administered as 1 h or 24 h infusion weekly, 3 h or 24 h infusion bi-weekly, or 1 h infusion for 5 consecutive days every 3 weeks. To evaluate the potential relationship between blood plitidepsin concentrations and QTc and HR values, a total of 90 patients who had ECGs performed during treatment with plitidepsin and PK data during first infusion were analyzed. The plitidepsin concentration at the time when the ECG had been obtained was calculated using the whole blood plitidepsin concentration at the ECG times in which they were simulated taking the individual Bayesian PK parameters of the final population PK model and considering the real treatment history of each patient. In total, 411 patients and 5585 plitidepsin concentration measurements (including 2900 blood and 2685 plasma concentrations) were pooled in the population PK analysis. An open, 3-compartment disposition model with linear elimination and linear distribution from the central compartment to peripheral compartments was used to describe the PK of plitidepsin in plasma. Between and within subject variabilities were assumed to be log-normally distributed. PK exposure parameters (maximum concentration in plasma (Cmax) and area under the curve (AUC) from day 0 to day 28) and other dose-independent PK parameters (clearance, half-life, etc.) were used to evaluate the relationship between patient PK characteristics and the appearance of CAEs. For the statistical analysis of the relationship between the exposure parameters and the development or not of a CAE, a logistic regression model was used to analyze the incidence of the event.
# [3] = All (n = 136 pairs), ECG within 4 h after end of infusion
# [4] = Myocardial injury (n = 4 pairs)
# [5] = No cardiac event (n = 116 pairs)
# [6] = Rhythm abnormalities (n = 18 pairs)
substance,measurement,setting,value
plitidepsin,CAE group: Miscellaneous Cardiac Adverse Events,[1]; All studies (n = 578),6 (1.0%) Patients (%)
same,CAE group: Myocardial Injury,[1]; All studies (n = 578),17 (3.0%) Patients (%)
same,CAE group: Rhythm Abnormalities,[1]; All studies (n = 578),31 (5.4%) Patients (%)
same,CAE subgroup: Irregular Supraventricular Tachycardia,[1]; All studies (n = 578),15 (2.6%) Patients (%)
same,CAE subgroup: Other Myocardial Injury,[1]; All studies (n = 578),7 (1.2%) Patients (%)
same,CAE subgroup: Other Rhythm Abnormalities,[1]; All studies (n = 578),13 (2.2%) Patients (%)
same,CAE subgroup: Possible Ischemic Related,[1]; All studies (n = 578),10 (1.7%) Patients (%)
same,CAE subgroup: Regular Supraventricular Tachycardia,[1]; All studies (n = 578),6 (1.0%) Patients (%)
same,CAE: Acute myocardial infarction,[1]; All studies (n = 578),1 (0.2%) Patients (%)
same,CAE: Arrhythmia,[1]; All studies (n = 578),1 (0.2%) Patients (%)
same,CAE: Atrial fibrillation,[1]; All studies (n = 578),11 (1.9%) Patients (%)
same,CAE: Atrial flutter,[1]; All studies (n = 578),5 (0.9%) Patients (%)
same,CAE: Atrioventricular block,[1]; All studies (n = 578),1 (0.2%) Patients (%)
same,CAE: Cardiac amyloidosis,[1]; All studies (n = 578),1 (0.2%) Patients (%)
same,CAE: Cardiac failure,[1]; All studies (n = 578),3 (0.5%) Patients (%)
same,CAE: Cardiac troponin I increased,[1]; All studies (n = 578),1 (0.2%) Patients (%)
same,CAE: Cardiomegaly,[1]; All studies (n = 578),1 (0.2%) Patients (%)
same,CAE: Cardiomyopathy,[1]; All studies (n = 578),2 (0.3%) Patients (%)
same,CAE: Change in electrocardiogram,[1]; All studies (n = 578),1 (0.2%) Patients (%)
same,CAE: Chest pain,[1]; All studies (n = 578),4 (0.7%) Patients (%)
same,CAE: Ejection fraction decreased,[1]; All studies (n = 578),1 (0.2%) Patients (%)
same,CAE: Electrocardiogram QT prolonged,[1]; All studies (n = 578),5 (0.9%) Patients (%)
same,CAE: Electrocardiogram ST-T change,[1]; All studies (n = 578),1 (0.2%) Patients (%)
same,CAE: Heart rate irregular,[1]; All studies (n = 578),1 (0.2%) Patients (%)
same,CAE: Hypertension,[1]; All studies (n = 578),1 (0.2%) Patients (%)
same,CAE: Hypotension,[1]; All studies (n = 578),2 (0.3%) Patients (%)
same,CAE: Myocardial ischemia,[1]; All studies (n = 578),3 (0.5%) Patients (%)
same,CAE: Palpitations,[1]; All studies (n = 578),6 (1.0%) Patients (%)
same,CAE: Pericardial effusion,[1]; All studies (n = 578),3 (0.5%) Patients (%)
same,CAE: Sinus tachycardia,[1]; All studies (n = 578),1 (0.2%) Patients (%)
same,CAE: Supraventricular arrhythmia,[1]; All studies (n = 578),1 (0.2%) Patients (%)
same,CAE: Supraventricular tachycardia,[1]; All studies (n = 578),1 (0.2%) Patients (%)
same,CAE: Tachycardia,[1]; All studies (n = 578),3 (0.5%) Patients (%)
same,CAE: Ventricular hypokinesia,[1]; All studies (n = 578),1 (0.2%) Patients (%)
same,Total Adverse Events (cardiac),[1]; All studies (n = 578),46 (8.0%) Patients (%)
same,CAE group: Miscellaneous Cardiac Adverse Events,[1]; Phase II studies (n = 364),3 (0.8%) Patients (%)
same,CAE group: Myocardial Injury,[1]; Phase II studies (n = 364),14 (3.8%) Patients (%)
same,CAE group: Rhythm Abnormalities,[1]; Phase II studies (n = 364),25 (6.9%) Patients (%)
same,CAE subgroup: Irregular Supraventricular Tachycardia,[1]; Phase II studies (n = 364),14 (3.8%) Patients (%)
same,CAE subgroup: Other Myocardial Injury,[1]; Phase II studies (n = 364),6 (1.6%) Patients (%)
same,CAE subgroup: Other Rhythm Abnormalities,[1]; Phase II studies (n = 364),13 (3.6%) Patients (%)
same,CAE subgroup: Possible Ischemic Related,[1]; Phase II studies (n = 364),8 (2.2%) Patients (%)
same,CAE subgroup: Regular Supraventricular Tachycardia,[1]; Phase II studies (n = 364),1 (0.3%) Patients (%)
same,CAE: Acute myocardial infarction,[1]; Phase II studies (n = 364),1 (0.3%) Patients (%)
same,CAE: Arrhythmia,[1]; Phase II studies (n = 364),1 (0.3%) Patients (%)
same,CAE: Atrial fibrillation,[1]; Phase II studies (n = 364),10 (2.7%) Patients (%)
same,CAE: Atrial flutter,[1]; Phase II studies (n = 364),5 (1.4%) Patients (%)
same,CAE: Atrioventricular block,[1]; Phase II studies (n = 364),1 (0.3%) Patients (%)
same,CAE: Cardiac amyloidosis,[1]; Phase II studies (n = 364),1 (0.3%) Patients (%)
same,CAE: Cardiac failure,[1]; Phase II studies (n = 364),2 (0.5%) Patients (%)
same,CAE: Cardiac troponin I increased,[1]; Phase II studies (n = 364),1 (0.3%) Patients (%)
same,CAE: Cardiomegaly,[1]; Phase II studies (n = 364),1 (0.3%) Patients (%)
same,CAE: Cardiomyopathy,[1]; Phase II studies (n = 364),2 (0.5%) Patients (%)
same,CAE: Change in electrocardiogram,[1]; Phase II studies (n = 364),1 (0.3%) Patients (%)
same,CAE: Chest pain,[1]; Phase II studies (n = 364),2 (0.5%) Patients (%)
same,CAE: Ejection fraction decreased,[1]; Phase II studies (n = 364),1 (0.3%) Patients (%)
same,CAE: Electrocardiogram QT prolonged,[1]; Phase II studies (n = 364),5 (1.4%) Patients (%)
same,CAE: Electrocardiogram ST-T change,[1]; Phase II studies (n = 364),1 (0.3%) Patients (%)
same,CAE: Heart rate irregular,[1]; Phase II studies (n = 364),1 (0.3%) Patients (%)
same,CAE: Hypertension,[1]; Phase II studies (n = 364),0 (0.0%) Patients (%)
same,CAE: Hypotension,[1]; Phase II studies (n = 364),2 (0.5%) Patients (%)
same,CAE: Myocardial ischemia,[1]; Phase II studies (n = 364),3 (0.8%) Patients (%)
same,CAE: Palpitations,[1]; Phase II studies (n = 364),6 (1.6%) Patients (%)
same,CAE: Pericardial effusion,[1]; Phase II studies (n = 364),1 (0.3%) Patients (%)
same,CAE: Sinus tachycardia,[1]; Phase II studies (n = 364),1 (0.3%) Patients (%)
same,CAE: Supraventricular arrhythmia,[1]; Phase II studies (n = 364),0 (0.0%) Patients (%)
same,CAE: Supraventricular tachycardia,[1]; Phase II studies (n = 364),0 (0.0%) Patients (%)
same,CAE: Tachycardia,[1]; Phase II studies (n = 364),0 (0.0%) Patients (%)
same,CAE: Ventricular hypokinesia,[1]; Phase II studies (n = 364),1 (0.3%) Patients (%)
same,Total Adverse Events (cardiac),[1]; Phase II studies (n = 364),37 (10.2%) Patients (%)
same,Plitidepsin-related CAEs: chest pain,[1]; of 15 related CAEs,2 n
same,Plitidepsin-related CAEs: palpitations,[1]; of 15 related CAEs,4 n
same,Patients with a CAE who had a fatal outcome as a direct consequence,"[1]; related, unrelated or unknown CAEs",None
same,"Potentially life-threatening arrhythmias (e.g., ventricular arrhythmias)",[1]; within plitidepsin trials,did not occur
same,QTc Pre-infusion,"[2]; All (n = 136 pairs), Bazett's corrected",426.77 (38.78) msec
same,HR Post-Infusion,[2]; [3],82.46 (13.17) bpm
same,QTc Post-infusion,[2]; [3],429.28 (40.25) msec
same,HR Pre-Infusion,[2]; All (n = 136 pairs),79.07 (15.33) bpm
same,HR Post-Infusion,[2]; Cardiac event (n = 20 pairs),80.10 (10.87) bpm
same,HR Pre-Infusion,[2]; Cardiac event (n = 20 pairs),74.05 (13.39) bpm
same,QTc Post-infusion,[2]; Cardiac event (n = 20 pairs),442.60 (32.09) msec
same,QTc Pre-infusion,[2]; Cardiac event (n = 20 pairs),437.75 (28.65) msec
same,HR Post-Infusion,[2]; [4],77.75 (12.55) bpm
same,HR Pre-Infusion,[2]; [4],68.75 (10.34) bpm
same,QTc Post-infusion,[2]; [4],437.50 (15.20) msec
same,QTc Pre-infusion,[2]; [4],429.00 (29.15) msec
same,HR Post-Infusion,[2]; [5],82.86 (13.53) bpm
same,HR Pre-Infusion,[2]; [5],79.92 (15.53) bpm
same,QTc Post-infusion,[2]; [5],426.98 (41.18) msec
same,QTc Pre-infusion,[2]; [5],424.88 (40.06) msec
same,HR Post-Infusion,[2]; [6],80.44 (11.30) bpm
same,HR Pre-Infusion,[2]; [6],75.44 (13.39) bpm
same,QTc Post-infusion,[2]; [6],442.67 (33.79) msec
same,QTc Pre-infusion,[2]; [6],439.44 (29.79) msec
same,Relationship between whole blood plitidepsin concentrations and QTc interval,"[2]; all ECGs during treatment (263 ECGs), simulated concentrations",No apparent relationship
